Consider two compounds from patent US12673050B2, “Compositions and their use for the treatment of A1-antitrypsin deficiency” (Centessa Pharmaceuticals (UK) Limited, priority 2021, dated 2026).

By fraction unbound is commonly meant free concentration divided by total concentration. Read a low fraction unbound as little free substance. In general, Cmax refers to the highest concentration seen after dosing. A word on the AUC: it is concentration integrated over time. Read a low AUC as less exposure. As usually defined, the AUC(0-inf) is the area under the concentration-time curve extrapolated to infinity.

One data set has as its target T1, human Siiyama A1AT (Homo sapiens, UniProt P01009, S77F).
T1 construct: expressed in transfected cells; host or cells: HEK-Siiyama cells (HEK-EBNA with Siiyama A1AT plasmid)
Nature of the data set: A1AT cell secretion assay using HEK-Siiyama cells (ELISA). Format: cell-based. The conditions noted are these: 1 or 10 μM, 48 h. As for the experimental part: (§1) HEK-Siiyama cells, a human embryonic kidney cell line stably transfected with the Siiyama A1AT gene, were plated into 96 well plates (3.0×10^5 cells/ml with 200 μl of media/well) overnight at 37° C. in a humidified atmosphere containing 5% CO2. Following incubation cells were washed with 200 μl serum-free media three times and media was replaced with serum-free media containing vehicle, 10 μM suberanilohydroxamic acid (SAHA), (S)-1-((2-(trifluoromethyl)phenyl)sulfonyl)piperidine-3-carboxylic acid (at 1 or 10 μM) or (R)-1-((2-(trifluoromethyl)phenyl)sulfonyl)piperidine-3-carboxylic acid (at 1 or 10 μM) in replicates of eight for 48 h in a 37° C. incubator in a final volume of 200 μl. At the end of the incubation step the supernatants were removed from the wells, centrifuged at 1000×g at 4° C. for 10 min and were assayed for human A1AT levels by ELISA (Human Serpin A1/α1-antitrypsin duo set ELISA, R& D Systems, DY1268) per manufacturer's instructions.
(§2) Briefly, a 96 well plate was coated with human A1AT capture antibody overnight at room temperature (1:180 dilution from stock, 100 μl final volume/well). The capture antibody was then removed and wells washed three times with 300 μl wash buffer (0.05% Tween 20 in PBS) and then 200 μl reagent diluent (25% Tween 20 in PBS) was incubated in each well for 1 h at room temperature. Diluted samples, standards (125, 250, 500, 1000, 2000, 4000 and 8000 pg/ml A1AT) or blanks were then added to each well in duplicate and the plates were covered with a plate sealer and left at room temperature for 2 h. […] After which, 50 μl stop solution (2M H2SO4) was added and optical density (OD) of each well was read at 450 nm with 570 nm blank subtracted from each well using a microplate reader. A 4 parameter logistic curve was constructed using GraphPad Prism 7 and A1AT concentrations were determined in each sample by interpolation from a standard curve and multiplying by the appropriate dilution factor.
(§3) The amount of human A1AT secreted from transfected HEK-EBNA cells into the media was measured by ELISA. […]
(An ELISA detects its analyte on a solid surface through an enzyme-linked reagent.)

Data set [1] is described as follows: Plasma protein binding by rapid equilibrium dialysis, mouse plasma. In kind it is in vitro ADME. To be noted: 37° C. As for the experimental part:
The extent to which (S)-1-((2-(trifluoromethyl)phenyl)sulfonyl)piperidine-3-carboxylic acid and (R)-1-((2-(trifluoromethyl)phenyl)sulfonyl)piperidine-3-carboxylic acid bound to plasma proteins such as albumin and alpha-1 acid glycoprotein within human or mouse blood was determined by rapid equilibrium dialysis. Compounds were incubated at 5 μM for 4 hours at 37° C. Plasma protein binding in mouse plasma was 78.1% and in human plasma was 91.5% for (S)-1-((2-(trifluoromethyl)phenyl)sulfonyl)piperidine-3-carboxylic acid. Plasma protein binding in mouse plasma was 83.8% and in human plasma was 90.5% for (R)-1-((2-(trifluoromethyl)phenyl)sulfonyl)piperidine-3-carboxylic acid.
Background: In equilibrium dialysis free small molecules cross a membrane that holds back macromolecules.

A short description of data set [2]: Pharmacokinetics in mice (blood, UPLC-MS/MS). Format: in vivo, mouse. To be noted: for Cmax / AUC / AUC(0-inf) / half-life / clearance / Vd: mouse, whole blood, male C57Bl/6 mice, blood; for Cmax: po, orally 10 mg/kg by gavage; for AUC / AUC(0-inf) / half-life / clearance / Vd: intravenously 2 mg/kg or orally 10 mg/kg; for half-life: read-out: Half-life in blood (t1/2) (converted); for clearance: read-out: Observed clearance; for Vd: read-out: Volume of distribution (Vz). The protocol:
(S)-1-((2-(trifluoromethyl)phenyl)sulfonyl)piperidine-3-carboxylic acid was administered to male C57BI/6 mice intravenously (2 mg/kg) or orally (10 mg/kg) by gavage. Whole blood diluted with water was prepared from these dosed animals over a time course up to 24 hours post dose to allow blood concentrations of drug to be measured by UPLC-MS/MS.
(R)-1-((2-(trifluoromethyl)phenyl)sulfonyl)piperidine-3-carboxylic acid was administered to male C57BI/6 mice intravenously (2 mg/kg) or orally (10 mg/kg) by gavage. Whole blood diluted with water was prepared from these dosed animals over a time course up to 24 hours post dose to allow blood concentrations of drug to be measured by UPLC-MS/MS.

In another data set the target is T2, human M A1AT (Homo sapiens, UniProt P01009).
T2 construct: expressed in transfected cells; host or cells: HEK-M cells (HEK-EBNA with M A1AT plasmid)
As to the kind of experiment: A1AT cell secretion assay using HEK-M cells (ELISA). Format: cell-based. The conditions noted are these: 10 μM, 48 h. As for the experimental part:
as §1, with “HEK-M cells, a” for “HEK-Siiyama cells, a”, “transfected with M A1AT, were plated” for “transfected with the Siiyama A1AT gene, were plated”, “media containing either vehicle, 10” for “media containing vehicle, 10”, “acid (at 10 μM)” for “acid (at 1 or 10 μM)”, “replicates of six for 48” for “replicates of eight for 48”, “(Human Serpin A1/α1 antitrypsin duo set” for “(Human Serpin A1/α1-antitrypsin duo set”
as §2, with “(0.05% Tween in PBS)” for “(0.05% Tween 20 in PBS)”
as §3

T1 sequence (P01009 25-418 S77F): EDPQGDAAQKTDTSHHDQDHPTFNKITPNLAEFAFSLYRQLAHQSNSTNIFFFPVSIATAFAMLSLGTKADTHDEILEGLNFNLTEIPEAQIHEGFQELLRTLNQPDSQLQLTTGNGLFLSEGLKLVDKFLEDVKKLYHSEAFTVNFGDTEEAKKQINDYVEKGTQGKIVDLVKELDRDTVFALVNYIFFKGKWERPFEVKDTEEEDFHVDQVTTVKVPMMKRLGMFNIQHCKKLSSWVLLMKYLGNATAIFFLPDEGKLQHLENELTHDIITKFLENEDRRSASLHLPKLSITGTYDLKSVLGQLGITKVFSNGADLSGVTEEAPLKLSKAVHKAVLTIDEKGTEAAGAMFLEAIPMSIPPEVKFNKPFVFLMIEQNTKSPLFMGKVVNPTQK
T2 sequence (P01009 25-418): as the sequence (P01009 25-418 S77F) above, with F53S counted along it

For the compound `O=C(O)[C@@H]1CCCN(S(=O)(=O)c2ccccc2C(F)(F)F)C1` [(R)-1-((2-(Trifluoromethyl)phenyl)sulfonyl)piperidine-3-carboxylic acid], the “secretion of human Siiyama A1AT into cell supernatant” value at human Siiyama A1AT was “does not stimulate secretion of human Siiyama A1AT”. The same compound gave a fraction unbound at 4 h, 5 μM in data set [1] of 0.162. In addition, in data set [2] (mice, Examples 7 and 8), the “AUC lower than S enantiomer” value stood at 2.2 fold and the “t½ shorter than S enantiomer” value is listed as 2.2 fold. Besides, in data set [2], the Cmax came out at 15600 ng/mL, the area under the curve (AUC) is 24200 ng·h/mL, the AUC(0-inf) was 24700 ng·h/mL and the half-life is 32.4 min. Further, in data set [2], the clearance came to 8.2 mL/min/kg and the Vd is 0.38 L/kg. For the same compound, the “secretion of human M A1AT into cell supernatant” value on human M A1AT was “does not stimulate secretion of human M A1AT”.

As to `O=C(O)[C@H]1CCCN(S(=O)(=O)c2ccccc2C(F)(F)F)C1` [(S)-1-((2-(Trifluoromethyl)phenyl)sulfonyl)piperidine-3-carboxylic acid], the “secretion of human Siiyama A1AT into cell supernatant” value at human Siiyama A1AT is “does not stimulate secretion of human Siiyama A1AT”. The fraction unbound at 4 h, 5 μM in data set [1] is 0.219. In data set [2], the Cmax stood at 33500 ng/mL, the AUC came out at 54200 ng·h/mL, the AUC(0-inf) came to 54400 ng·h/mL and the half-life is 72 min. Further, in data set [2], the clearance stood at 4.7 mL/min/kg and the Vd was 0.49 L/kg. The “secretion of human M A1AT into cell supernatant” value at human M A1AT is on record as “does not stimulate secretion of human M A1AT”.
